From US10016500B2, “Poloxamer-based pharmaceutical compositions for treating wounds” (Professional Compounding Centers of America (PCCA), priority 2014, dated 2018)

System: C. albicans ATCC 90028 biofilm
Test: Antifungal biofilm susceptibility testing (Minimum Biofilm Inhibitory Concentration, broth microdilution, CellTiter 96)
Assay type: cell-based, Candida albicans
Conditions: for Minimum Biofilm Inhibitory Concentration: lowest concentration giving 50% reduction of fungal growth, 48 h at 35° C., combination expressed as concentration of itraconazole
Protocol: Materials: Itraconazole EP Micronized (lot number C149307) and PCCA Formula #10342 (4 g of Itraconazole EP Micronized+37.574 g of Poloxamer composition) were provided by PCCA (Houston, Tex., USA) as powders. Itraconazole and PCCA Formula #10342 were prepared on the day of the assay. Fluconazole and amphotericin B were obtained as powders and stored at 4° C. […] Strain: Candida albicans isolate ATCC 90028 was obtained from American Type Culture Collection (Manassas, Va.), and used in the course of this study. Methods: In order to determine antimicrobial activity of itraconazole and the micronized poloxamer composition against biofilms of Candida albicans, an antifungal biofilm susceptibility testing was developed in conditions where a Minimum Biofilm Inhibitory Concentration (MBIC) of itraconazole within the micronized poloxamer composition, micronized poloxamer excipient, itraconazole, fluconazole and amphotericin B was measured for the C. albicans biofilm according to the conventional NCCLS M27-A broth microdilution method. The testing medium used for growing was RPMI 1640 (American Biorganics, Inc., […].) supplemented with L-glutamine (Sigma Aldrich®). Yeast inocula (100 μL of 1×10^6 cells/mL) were added to each well of 96-well microtiter plates (Corning) and incubated at 37° C. for 48 h. After biofilm formation, medium was aspirated and non-adherent cells were […] (PBS, Sigma Aldrich®). […] A series of sample-free wells and biofilm-free wells were also included to serve as positive and negative controls, respectively. […] Cell viability was determined by using a conventional CellTiter 96® Non-Radioactive Cell Proliferation Assay.

Row | SMILES | MBIC [µg/mL] | Minimum Biofilm Inhibitory Concentration
1 | C[C@@H]1[C@H](O)[C@@H](C)/C=C/C=C/C=C/C=C/C=C/C=C/C=C/[C@H](O[C@@H]2O[C@H](C)[C@@H](O)[C@H](N)[C@@H]2O)C[C@@H]2O[C@](O)(C[C@@H](O)C[C@@H](O)[C@H](O)CC[C@@H](O)C[C@@H](O)CC(=O)O[C@H]1C)C[C@H](O)[C@H]2C(=O)O [Amphotericin B, amphotericin B] | 0.5 | 0.5 µg/mL
2 | OC(Cn1cncn1)(Cn1cncn1)c1ccc(F)cc1F [Fluconazole, fluconazole] | > 1024 | >1,024 ug/mL
3 | CCC(C)n1ncn(-c2ccc(N3CCN(c4ccc(OCC5COC(Cn6cncn6)(c6ccc(Cl)cc6Cl)O5)cc4)CC3)cc2)c1=O (centres unmarked) [Itraconazole, itraconazole] |  | 1024 µg/mL
